Key:
Homo sapiens [1] = species on record: Homo sapiens; experiment: (§1) Binding affinity to recombinant human STING R232H variant C-terminal domain (139 to 378 residues) expressed in Escherichia coli BL21 (DE3) cells assessed as thermal stabilization by measuring change in melting temperature at 50 uM incubated at 25 to 95 degreeC for 45 mins by SYPRO orange dye based fluorescence analysis
[2] = biological target: T1, Stimulator of interferon genes protein (Homo sapiens, UniProt Q86WV6); experiment: Agonist activity at STING in PMA-differentiated wildtype human THP1-Blue ISG cells harboring IRF-inducible SEAP reporter construct incubated for 24 hrs by QUANTI-Blue assay; assay type: cell-based
Target sequence in this assay (Q86WV6 whole entry, the tested form may be a part): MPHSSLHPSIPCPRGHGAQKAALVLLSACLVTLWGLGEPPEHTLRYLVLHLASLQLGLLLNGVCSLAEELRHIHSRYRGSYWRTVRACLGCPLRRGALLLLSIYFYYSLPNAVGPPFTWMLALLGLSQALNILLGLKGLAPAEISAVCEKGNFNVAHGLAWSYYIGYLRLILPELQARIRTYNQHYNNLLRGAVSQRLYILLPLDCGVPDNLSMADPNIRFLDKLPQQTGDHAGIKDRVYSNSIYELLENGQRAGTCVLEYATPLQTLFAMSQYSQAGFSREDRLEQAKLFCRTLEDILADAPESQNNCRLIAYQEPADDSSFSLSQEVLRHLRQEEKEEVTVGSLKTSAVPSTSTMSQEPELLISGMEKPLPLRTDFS

[3] = Competitive inhibition of 5-FAM labelled diABZI binding to recombinant human STING R293Q variant C-terminal domain (139 to 378 residues) expressed in Escherichia coli BL21 (DE3) cells incubated for 10 mins by fluorescence polarization assay
[4] = biological target: T2, Stimulator of interferon genes protein (Mus musculus, UniProt Q3TBT3); experiment: Competitive inhibition of 5-FAM labelled diABZI binding to recombinant 6-his tagged mouse STING C-terminal domain (144 to 378 residues) expressed in Escherichia coli BL21 (DE3) cells incubated for 10 mins by fluorescence polarization assay
T2 sequence (Q3TBT3 whole entry): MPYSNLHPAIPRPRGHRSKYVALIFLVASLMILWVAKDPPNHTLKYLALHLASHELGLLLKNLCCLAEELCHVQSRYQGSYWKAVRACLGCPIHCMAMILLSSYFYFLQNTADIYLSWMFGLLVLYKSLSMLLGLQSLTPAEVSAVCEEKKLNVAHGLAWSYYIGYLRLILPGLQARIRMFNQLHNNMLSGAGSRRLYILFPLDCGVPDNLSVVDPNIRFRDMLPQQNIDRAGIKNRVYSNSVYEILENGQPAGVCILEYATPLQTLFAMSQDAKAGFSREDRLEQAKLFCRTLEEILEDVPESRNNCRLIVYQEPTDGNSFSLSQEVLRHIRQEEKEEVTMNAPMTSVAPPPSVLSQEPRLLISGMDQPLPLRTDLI

[5] = Competitive inhibition of 5-FAM labelled diABZI binding to recombinant human STING R232H variant C-terminal domain (139 to 378 residues) expressed in Escherichia coli BL21 (DE3) cells incubated for 10 mins by fluorescence polarization assay
Homo sapiens [6] = species on record: Homo sapiens; experiment: as §1, with “G230A and R293Q” for “R232H”
[7] = tested on: Stimulator of interferon genes protein (Homo sapiens), Q86WV6 [UNDEFINED MUTATION]; experiment: as §1, with “recombinant wildtype” for “recombinant”, “R232” for “R232H”
Stimulator of interferon genes protein (Homo sapiens), Q86WV6 [UNDEFINED MUTATION], sequence (Q86WV6 whole entry, looked up, stated change not applied, the tested form may be a part): as the sequence (Q86WV6 whole entry, the tested form may be a part) above

[8] = biological target: T1, Stimulator of interferon genes protein; experiment: Competitive inhibition of 5-FAM labelled diABZI binding to recombinant wildtype human STING R232 variant C-terminal domain (139 to 378 residues) expressed in Escherichia coli BL21 (DE3) cells incubated for 10 mins by fluorescence polarization assay
Target sequence in this assay (Q86WV6 whole entry, looked up, stated change not applied, the tested form may be a part): as the sequence (Q86WV6 whole entry, the tested form may be a part) above

[9] = Competitive inhibition of 5-FAM labelled diABZI binding to recombinant human STING G230A and R293Q variant C-terminal domain (139 to 378 residues) expressed in Escherichia coli BL21 (DE3) cells incubated for 10 mins by fluorescence polarization assay
[10] = biological target: T3, Stimulator of interferon genes protein (Mus musculus) (UniProt Q3TBT3); experiment: as §1, with “6-His tagged mouse” for “human”, “STING” for “STING R232H variant”, “(144” for “(139”
T3 sequence (whole entry): T2 sequence (Q3TBT3 whole entry)

Homo sapiens [11] = species on record: Homo sapiens; experiment: as §1, with “R293Q” for “R232H”

Structure (SMILES) | EC50 [2] [µM] | ΔTm (Homo sapiens [1]) [°C] | also measured
N#Cc1ccn(-c2ccc(C(=O)Nc3cc(C4CC4)c(F)cc3C(=O)O)nn2)c1 | 29.5 | 1 | 
N#Cc1ccn(-c2ccc(C(=O)Nc3cc(F)c(Cl)cc3C(=O)O)nn2)c1 | 42.2 | 1.5 | 
CCCn1c(NC(=O)c2cc(C)nn2C)nc2cc(C(N)=O)cc(OC3COC3)c21 |  | 6 | IC50 [3]: 3.82 µM; IC50 [4]: 3.75 µM; IC50 [5]: 2.78 µM; ΔTm (Homo sapiens [6]): 5 °C; ΔTm [7]: 4.5 °C; IC50 [8]: 3.16 µM; IC50 [9]: 3.66 µM; ΔTm [10]: 5.5 °C; ΔTm (Homo sapiens [11]): 5.5 °C
N#Cc1ccn(-c2ccc(C(=O)Nc3cc(Br)c(F)cc3C(=O)O)nn2)c1 | 4.86 | 6 | 
COc1cc(C(=O)O)c(NC(=O)c2ccc(-n3ccc(C#N)c3)nn2)cc1F | 44.3 | 0 | 
C=Cc1cc(NC(=O)c2ccc(-n3ccc(C#N)c3)nn2)c(C(=O)O)cc1F | 19.8 | 4.5 | 

Further lines, with some results ahead:

EC50 [2] [µM] | Structure (SMILES) | ΔTm (Homo sapiens [1]) [°C] | also measured
69.8 | N#Cc1ccn(-c2ccc(C(=O)Nc3cc(C#CC4CC4)c(F)cc3C(=O)O)nn2)c1 | -0.5 | 
35 | CC#Cc1cc(NC(=O)c2ccc(-n3ccc(C#N)c3)nn2)c(C(=O)O)cc1F | 0.5 | 
> 100 | N#Cc1ccn(-c2ccc(C(=O)Nc3ccc(F)cc3C(=O)O)nn2)c1 | 0.5 | 
48.1 | N#Cc1ccn(-c2ccc(C(=O)Nc3cc(F)ccc3C(=O)O)nn2)c1 | 0 | 
6.33 | N#Cc1ccn(-c2ccc(C(=O)Nc3cc(Br)c(Br)cc3C(=O)O)nn2)c1 | 6.5 | 
